Laboratory results published in the supplement of paper PMC11616607.

Experiments:
Experiment in all cases: drug sensitivity score (DSS) from 5-point dose-response viability curve (DSS (area-under-curve based score)); higher = more sensitive (stronger growth inhibition or killing); extreme values may be limits of the assay
Conditions in all cases: exposure time: 72 h; concentration range: 5 concentrations over 10,000-fold range
Ovsaho = test system: Ovsaho
In short: (§1)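 For the drug sensitivity score, obtained per cell line and drug in Breeze software, larger values mean greater sensitivity. No response corresponds to a score of zero. Ovarian cancer and normal ovarian cells were seeded at 1,500 per well into 384-well plates already holding acoustically dispensed drugs (Echo 550, DMSO or water, five concentrations over a 10,000-fold range) and incubated 3 days at 37°C, 5% CO2. CellTiter-Glo luminescence on a PHERAstar FS gave the viability readout.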

OVCAR4 = test system: OVCAR4
In short: as §1

COV318 = test system: COV318
In short: as §1

OVCAR5 = test system: OVCAR5
In short: as §1

HOSE2C = test system: HOSE2C
In short: as §1

CAOV3 = test system: CAOV3
In short: as §1

COV362 = test system: COV362
In short: as §1

HOSE1C = test system: HOSE1C
In short: as §1

OV90 = test system: OV90
In short: as §1

Kuramochi = test system: Kuramochi
In short: as §1

JHOS2 = test system: JHOS2
In short: as §1

OVCAR8 = test system: OVCAR8
In short: as §1

SMILES	drug sensitivity score (Ovsaho)	drug sensitivity score (OVCAR4)	drug sensitivity score (COV318)	drug sensitivity score (OVCAR5)	drug sensitivity score (HOSE2C)	drug sensitivity score (CAOV3)	drug sensitivity score (COV362)	drug sensitivity score (HOSE1C)	drug sensitivity score (OV90)	drug sensitivity score (Kuramochi)	drug sensitivity score (JHOS2)	drug sensitivity score (OVCAR8)
CC(C)(C)c1cc(NC(=O)Nc2ccc(Oc3ccnc4[nH]c(=O)cnc34)cc2F)n(-c2ccccc2)n1	1.6	2.8	0	1.8	12.8	2.8	0	16.2	12.4	2.3	0.5	2
CC(C)Oc1ccc(C(=O)N[C@H](CNC(=O)CN(C)C)Cc2ccc(-c3cn4cccc([C@H](C)O)c4n3)cc2)cc1Cl	10.2	4.2	3.9	16.3	11.1	17.5	6	14.1	12	9	7.2	14
CCn1c(-c2nonc2N)nc2c(C#CC(C)(C)O)ncc(OC[C@H]3CCCNC3)c21	0.5	0	0	0	3.7	4.3	1.3	1.4	0.6	2.9	0	0
CCn1c(-c2nonc2N)nc2cnc(Oc3cccc(NC(=O)c4ccc(OCCN5CCOCC5)cc4)c3)cc21	0.9	0.6	5.7	2.2	6	1.6	0.2	12.7	5.1	2.1	2.8	4.4
CCn1cc(-c2ccnc3[nH]c(-c4cccc(CN(C)C)c4)cc23)c(-c2ccc(NC(=O)N(C)C)cc2)n1	1.2	2.9	0.2	2	1.4	17	0.2	1.3	0.3	0.4	0	1.9
CN(c1ncccc1CNc1nc(Nc2ccc3c(c2)CC(=O)N3)ncc1C(F)(F)F)S(C)(=O)=O	5.7	4.7	1.9	6.1	3.9	7.4	3.5	4.6	5.9	5.5	5.1	4.3
CN1CCN(C2CCC(n3cc(-c4ccc(Oc5ccccc5)cc4)c4c(N)ncnc43)CC2)CC1 (stereo unspecified)	15.6	7.6	6.9	15.1	9.3	11.4	11.5	7.8	10.3	12.6	7.1	9.4
CNC(=O)c1ccccc1Nc1nc(Nc2ccc3c(c2OC)CCC[C@H](N2CCN(CCO)CC2)C3)ncc1Cl	8.5	5.2	5.2	9.1	8.4	8.2	5.4	4.8	8.8	6.4	7.6	4.9
CNc1nc(-c2ccc3c(N)n[nH]c3c2)cc(N2C[C@@H](C(=O)NC3CCCCC3)CC[C@H]2C)n1	1.1	0	0.1	0	2.6	1.9	0	4.5	0	0.5	0.7	1.2
CNc1ncc2cc(-c3cc(NC(=O)NCCC(C)(C)C)c(F)cc3C)c(C)nc2n1	8.9	3.7	0.8	11.3	5	7.9	4.2	4.2	24.4	8.7	10.3	9.9
CONC(=O)c1ccccc1Nc1cc(Nc2cc(C)nn2C(C)C)ncc1Cl	3.1	0.1	0	0.3	0	0	0.2	0	0	1.4	0.1	0
CO[C@@H](C)Cn1c(=O)n(C)c2cnc3ccc(-c4cncc(C(C)(C)O)c4)cc3c21	10.9	9.8	6.8	8.7	9.9	9.2	3.8	15.1	11.9	8.3	7.8	9.5
COc1cc2ncnc(Oc3cccc(NC(=O)Nc4cc(C(C)(C)C(F)(F)F)on4)c3)c2cc1OC	0	0	0	3	0	0	0	1.3	2.4	0.4	1.5	0
COc1ccc(Cn2ccc3ccc(C(=O)NO)cc32)cc1	2.6	3.6	0	0.7	1.5	1.1	0	2.5	1.8	1.2	0.1	3.7
COc1ccc2[nH]cc(/C=C3\C(=O)Nc4ccc(NC(=O)CCN5CCCCC5)cc43)c2c1	4.6	4.9	5.4	9.4	6.1	6.3	8.7	4.8	11.7	5.7	5	8.8
C[C@@H](Oc1cc(-n2cnc3ccc(CN4CCN(C)CC4)cc32)sc1C(N)=O)c1ccccc1C(F)(F)F	24.7	3.6	6.8	19.4	10.1	22.4	3.6	13.7	19.6	7.7	15.3	29.1
C[C@@H](Oc1ccc2[nH]nc(/C=C/c3cnn(CCO)c3)c2c1)c1c(Cl)cncc1Cl	4.9	2.5	2.3	5.5	22.7	6.9	2.2	8.5	5.3	1.8	2	3.4

SMILES	drug sensitivity score (Ovsaho)	drug sensitivity score (OVCAR4)	drug sensitivity score (COV318)	drug sensitivity score (OVCAR5)	drug sensitivity score (HOSE2C)	drug sensitivity score (CAOV3)	drug sensitivity score (COV362)	drug sensitivity score (HOSE1C)	drug sensitivity score (OV90)	drug sensitivity score (Kuramochi)	drug sensitivity score (JHOS2)	drug sensitivity score (OVCAR8)
C[C@@H]1CN(CC(=O)Nc2ccc3c(c2)Cc2cccc(-c4cc(=O)cc(N5CCOCC5)o4)c2S3)C[C@H](C)O1	3.4	0.7	0	1.6	0	1.1	1.2	0	2.7	0.5	0	1.9
Cc1c(Cn2c(C)nc3c(C(=O)O)cc(N4CCOCC4)cc32)cccc1C(F)(F)F	3.8	0	0	0	0	0	0	1.2	0	3.7	0	0
Cc1cccc(CC(=O)N2CCc3c2ccc(-c2cn(C)c4ncnc(N)c24)c3F)n1	0	1.1	0	0	0	0.4	0	0	0	0.2	0	1.5
Cc1ncc(Cl)cc1NCc1ccc(C(=O)N[C@@H](CC2CCCC2)C(=O)NC2CC2)s1	0	0	0	0	0	0	0	0	0.1	0.4	0	0
Cn1cc(-c2ccc(F)c(C(F)(F)F)c2)nc1C1CCN(c2ncnc3[nH]ncc23)CC1	0	0	0	0	3.2	0	0	1.9	0	0	0	0.1
Cn1cc(C2=Nc3cc(NC(=O)C(N)C4CCCCC4)cc4c3C2=CNNC4=O)cn1 (stereo unspecified)	6.8	15.4	6.2	6.4	18.3	11	5.2	13.5	11.6	7.3	5.1	14.7
NCC(=O)Nc1ccc(-n2nc(C(F)(F)F)cc2-c2ccc3c(ccc4ccccc43)c2)cc1	4.9	0	2.8	0	8.9	1	0	21.7	0.1	1.4	1.5	2.7
O=C(NC[C@H](O)CN1CCc2ccccc2C1)c1cc(NC2COC2)ncn1	0	2	0.2	0.8	0	0	0	0	0	0.4	0.7	0
O=C(NOC[C@H](O)CO)c1ccc(F)c(F)c1Nc1ccc(I)cc1F	13.5	2.1	0	9.7	0.4	11.7	2.4	0	21.6	5.2	3.2	1.7
O=C(O)c1ccc(-c2c[nH]c3ncc(-c4ccccc4)cc23)cc1C1CCCC1	0	0	0	1.4	1.2	2.3	0.1	0	1.2	0	0	0.3
O=C(O)c1ccc(CN2CCC(CN[C@@H]3C[C@H]3c3ccccc3)CC2)cc1	0	0.3	0	0	0	0	0	0	0	0	0	0
O=C1Cc2cc(C(=O)NC3C[C@H]4CC[C@@H](C3)N4S(=O)(=O)CC3CCN(CCCC(F)(F)F)CC3)c(Cl)cc2N1 (stereo partly specified)	0	0	0	0	0	0	0	0	0.6	0	0	0
CCN(CC)CCCC(C)Nc1ccnc2cc(Cl)ccc12 (stereo unspecified) [Chloroquine]	8.1	6.2	4.9	8.8	7.2	7.2	5.5	6.3	10	–	–	5.8
Nc1ccn([C@@H]2O[C@H](CO)[C@@H](O)[C@@H]2O)c(=O)n1 [Cytarabine]	2	0	1	10.6	6.6	14.9	2.3	14	4.4	–	8.6	14.3
Cc1ccc(NC(=O)c2ccc(CN3CCN(C)CC3)cc2)cc1Nc1nccc(-c2cccnc2)n1 [Imatinib]	0	0	0	1.3	0	0	0.3	0.2	1.5	–	0	0.5
CC[C@H](CO)Nc1nc(NCc2ccccc2)c2ncn(C(C)C)c2n1 [Seliciclib]	0.1	0	1.1	3.4	0	0.4	0	1.1	0.3	–	1.2	1.6
